Reference: PubChem BioAssay (NCI)
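GI50 marks 50% less growth. TGI: total growth inhibition.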

Experiments:
Experiment in all cases: NCI-60 cell line screen, 384-well format
NCI-H226 lung = system: NCI-H226 lung
NCI-H23 lung = system: NCI-H23 lung
NCI-H322M lung = system: NCI-H322M lung
NCI-H460 NSCLC = system: NCI-H460 NSCLC
NCI-H522 lung = system: NCI-H522 lung
NCI/ADR-RES ovarian = system: NCI/ADR-RES ovarian
OVCAR-3 ovarian = system: OVCAR-3 ovarian
OVCAR-4 ovarian = system: OVCAR-4 ovarian
OVCAR-5 ovarian = system: OVCAR-5 ovarian
OVCAR-8 ovarian = system: OVCAR-8 ovarian
PC-3 prostate = system: PC-3 prostate
RXF 393 renal = system: RXF 393 renal
SF-268 CNS = system: SF-268 CNS
SF-295 CNS = system: SF-295 CNS
SF-539 CNS = system: SF-539 CNS
SK-MEL-2 melanoma = system: SK-MEL-2 melanoma
SK-MEL-28 melanoma = system: SK-MEL-28 melanoma
SK-MEL-5 melanoma = system: SK-MEL-5 melanoma
SK-OV-3 ovarian = system: SK-OV-3 ovarian
SN12C renal = system: SN12C renal
SNB-19 CNS = system: SNB-19 CNS
SR leukemia = system: SR leukemia
SW-620 colon = system: SW-620 colon
T-47D breast = system: T-47D breast
TK-10 renal = system: TK-10 renal
U251 glioblastoma = system: U251 glioblastoma
UACC-257 melanoma = system: UACC-257 melanoma
UACC-62 melanoma = system: UACC-62 melanoma
UO-31 renal = system: UO-31 renal

N[C@@H](CSSC[C@H](N)C(=O)N1CCn2cc(-c3ccccc3)nc2[C@@H]1CC1CCCCC1)C(=O)N1CCn2cc(-c3ccccc3)nc2[C@@H]1CC1CCCCC1
TGI (NCI-H226 lung): 3260 nM
GI50 (NCI-H23 lung): 2120 nM
TGI (NCI-H23 lung): 4210 nM
GI50 (NCI-H322M lung): 2470 nM
TGI (NCI-H322M lung): 5640 nM
GI50 (NCI-H460 NSCLC): 288 nM
TGI (NCI-H460 NSCLC): 1590 nM
GI50 (NCI-H522 lung): 1610 nM
TGI (NCI-H522 lung): 2970 nM
GI50 (NCI/ADR-RES ovarian): 2350 nM
TGI (NCI/ADR-RES ovarian): 5410 nM
GI50 (OVCAR-3 ovarian): 1100 nM
TGI (OVCAR-3 ovarian): 2310 nM
GI50 (OVCAR-4 ovarian): 1940 nM
TGI (OVCAR-4 ovarian): 3380 nM
GI50 (OVCAR-5 ovarian): 1710 nM
TGI (OVCAR-5 ovarian): 3150 nM
GI50 (OVCAR-8 ovarian): 1620 nM
TGI (OVCAR-8 ovarian): 2980 nM
GI50 (PC-3 prostate): 1830 nM
TGI (PC-3 prostate): 3260 nM
TGI (RXF 393 renal): 1090 nM
GI50 (SF-268 CNS): 283 nM
TGI (SF-268 CNS): 1160 nM
GI50 (SF-295 CNS): 1940 nM
TGI (SF-295 CNS): 3360 nM
GI50 (SF-539 CNS): 1720 nM
TGI (SF-539 CNS): 3100 nM
GI50 (SK-MEL-2 melanoma): 184 nM
TGI (SK-MEL-2 melanoma): 524 nM
GI50 (SK-MEL-28 melanoma): 146 nM
TGI (SK-MEL-28 melanoma): 1030 nM
GI50 (SK-MEL-5 melanoma): 194 nM
TGI (SK-MEL-5 melanoma): 1300 nM
GI50 (SK-OV-3 ovarian): 242 nM
TGI (SK-OV-3 ovarian): 1800 nM
GI50 (SN12C renal): 1560 nM
TGI (SN12C renal): 2910 nM
GI50 (SNB-19 CNS): 586 nM
TGI (SNB-19 CNS): 1870 nM
GI50 (SR leukemia): 220 nM
TGI (SR leukemia): 627 nM
GI50 (SW-620 colon): 1020 nM
TGI (SW-620 colon): 2200 nM
GI50 (T-47D breast): 155 nM
TGI (T-47D breast): 550 nM
GI50 (TK-10 renal): 1750 nM
TGI (TK-10 renal): 3150 nM
GI50 (U251 glioblastoma): 571 nM
TGI (U251 glioblastoma): 1890 nM
GI50 (UACC-257 melanoma): 257 nM
TGI (UACC-257 melanoma): 702 nM
GI50 (UACC-62 melanoma): 176 nM
TGI (UACC-62 melanoma): 349 nM
GI50 (UO-31 renal): 2070 nM
TGI (UO-31 renal): 3960 nM
